Reference: US20250230226A1, “PLXDC1/PLXDC2 ACTIVATORS AND THEIR USE IN THE TREATMENT OF BLOOD VESSEL DISORDERS” (THE REGENTS OF THE UNIVERSITY OF CALIFORNIA, priority 2019, published 2025)

System: LL/2 lung cancer tumor endothelial cells
Experiment: Lung LL2 ex vivo model of tumor angiogenesis
Type: cell-based, mouse
Conditions: for 48 hrs (morphology observations): LL/2 tumor endothelial cells; for Cell death: drug treatment for two days, ratio of red area to total endothelial cell area; for cytotoxicity at 40 µM / cytotoxicity at 20 µM: Mus musculus, Endothelial cell, 48 h, read-out: Cell death
Experimental: An ex vivo tumor angiogenesis model was developed to test the efficacy of anti-cancer candidate agents. The following protocol describes the Ex Vivo Tumor Angiogenesis Model.
• 1. The day before the experiment, all necessary tools were sprayed with 70% ethanol and sterilized under UV light overnight, including blade, dissecting and micro-dissecting scissors and […]. 24-well dishes were placed at 4° C. to pre-chill plates and Matrigel was thawed, 24 hours before tumor dissection. • 2. 70% ethanol was sprayed on working bench. Two sterile petri dishes were prepared with 10 ml sterile PBS. The following steps 3 and 4 are necessary for mouse tumor models. For fresh human tumor, steps 3 and 4 are skipped. • 3. The tumor-bearing mice were euthanized. 70% ethanol was sprayed on the mouse and the tumor was removed using sterilized dissecting tools (avoid the fur). The tumor was rinsed in petri dish with sterile PBS to remove ethanol and fur. The tumor was transferred to a new petri dish with PBS for dissection. The dish is placed on ice. • 4. Pre-chilled sterile pipet tips were used to seed regular Matrigel in 24 well plates on ice. Matrigel (30 μl) was dropped in the middle of each well without touching the edge of the well (avoid introducing bubbles if possible). • 5. The tumor was cut in halves using the sterile blade. Healthy tumor tissue that is not necrotic and is within the tumor capsule was identified and isolated. The healthy tumor tissue was cut into small pieces. For instance, a suitable size for the tumor tissue is 0.5 mm (H)×0.5 mm (L)×0.3 mm (D) with a total volume of 0.075 mm^3. • 6. Each tumor piece was gently transferred and embedded in the Matrigel drop in the 24-well plate. The embedded piece was placed in the bottom and middle of each Matrigel drop. The plate was kept on ice all the time. • 7. After seeding the tumor pieces, plates were incubated in a 37° C. cell culture incubator without medium for 10 minutes in order for the Matrigel to solidify. • 8. Endothelial Growth Medium (0.5 ml) was added to each well and incubated at 37° C. with 5% CO2. Treatment was not added until the new endothelial cells was grown out of the tumor or were larger than 3 mm in diameter. This usually takes 4 days for the LL2 Lewis lung cancer model and 7 days for the CT26 colon cancer model. For human tumor models, the growth time is typically 2-3 weeks, depending on the tumor type. Media was changed every 4 days during prolonged culture. Typically, when the tumor tissue grows to 2 mm in diameter, it was good for drug testing. A size of about 3 mm in diameter can make visualization easier. • 9. When the assay was ready to be analyzed for cell death (e.g., 48 hours after drug addition), the dye mixture was prepared by mixing 6 μl of green dye to stain live cells (5 mg/ml Fluorescein diacetate or FDA in DMSO) with 30 μl of red dye (2.5 mg/ml Propidium iodide or PI in PBS) to stain dead cells in an Eppendorf tube. The FDA dye needs to be stored frozen in a −20° C. freezer because it has a labile ester bond. • 10. 1 μl of the dye mixture was added to each well of the 24-well dish. It is usually preferred to do one 24-well dish at a time given the amount of time needed to take pictures (the green dye is not as stable in the cells in the long term). • 11. The dish was gently rocked a few times to mix the dye with the media in the wells and incubate the dish at 37° C. for 10 min (too long incubation can make the green signal too intense). • 12. Each well was washed with 0.5 ml of sterile PBS and then 0.5 ml of phenol red free SFM was added to each well. Alternatively 0.5 ml of regular Endothelial Cell Growth Media can be added to each well if this well needs to be continuously maintained after the experiment. • 13. An inverted microscope using the 2× objective lens was used to observe morphological changes in the experimental wells. • 14. […]

In the case of CCCCOc1ccc(S(=O)(=O)c2cnc3ccc(SC)cc3c2N2CCC(N3CCCN(C)CC3)CC2)cc1 [Compound 234], the “48 hrs (morphology observations)” value (40 μm) was “*** (more than 50% but less than 100% of endothelial cells vesicularize in cell shape)” and the Cell death (40 μm) was 100%.

In the case of CCCCCCCOc1ccc(S(=O)(=O)c2cnc3ccc(SC)cc3c2N2CCN(CCN3CCCC3)CC2)cc1 [Compound 272], the “48 hrs (morphology observations)” value (20 μm) was “* (50% or less of cells vesicularize in cell shape)” and the Cell death (20 μm) was 20%.

CCOC(=O)c1ccc2ncc(S(=O)(=O)c3ccc(OC)cc3)c(NN3CCN(C)CC3)c2c1 [Compound 225] was tested, and the “48 hrs (morphology observations)” value (40 μm) was 0 and the Cell death (40 μm) was 40%.

In the case of COc1ccc(S(=O)(=O)c2cnc3ccc([N+](=O)[O-])cc3c2N2CCC(N3CCCCC3)CC2)cc1 [Compound 114], the “48 hrs (morphology observations)” value (20 μm) was 0 and the Cell death (20 μm) was 5%.

For COc1ccc(S(=O)(=O)c2cnc3cc(OC)c(OC)cc3c2N2CCC(N3CCCC3=O)CC2)cc1 [Compound 321], the “48 hrs (morphology observations)” value (40 μm) was 0 and the Cell death (40 μm) was 40%.

CCCCCCCOc1ccc(S(=O)(=O)c2cnc3ccc(SC)cc3c2N2CCN(C3CCN(Cc4ccccc4)C3)CC2)cc1 (stereo not drawn) [Compound 274] was tested, and the “48 hrs (morphology observations)” value (20 μm) was 0 and the Cell death (20 μm) was 10%.

For CCN(CC)CCC(C)Nc1c(S(=O)(=O)c2ccc(OC)cc2)cnc2cc(OC)c(OC)cc12 (stereo not drawn) [Compound 300], the “48 hrs (morphology observations)” value (40 μm) was 0 and the Cell death (40 μm) was 20%.

CCCCCCCCCCCCOc1ccc(S(=O)(=O)c2cnc3ccc([S+](C)[O-])cc3c2N2CCC(N3CCC(N4CCC(O)CC4)CC3)CC2)cc1 (stereo not drawn) [Compound 374] showed a Cell death (20 μm) of 20%.

CCCCOc1ccc(S(=O)(=O)c2cnc3ccc(SC)cc3c2N2CCCN(C3COC3)CC2)cc1 [Compound 355] was tested, and the “48 hrs (morphology observations)” value (40 μm) was 0 and the cytotoxicity at 40 µM was 0%.

For CCOC(=O)c1ccc2ncc(S(=O)(=O)c3ccc(CC)cc3)c(-n3ccnc3)c2c1 [Compound 134], the “48 hrs (morphology observations)” value (20 μm) was “**** (100% of endothelial cells vesicularize in cell shape and look flattened in morphology (indicating disintegration of the cell body))”.

For CCCCCCCCCCCCCCCCOc1ccc(S(=O)(=O)c2cnc3ccc([S+](C)[O-])cc3c2N2CCC(N3CCC(N4CCCC(O)C4)CC3)CC2)cc1 (stereo not drawn) [Compound 378], the “48 hrs (morphology observations)” value (20 μm) was “*** (more than 50% but less than 100% of endothelial cells vesicularize in cell shape)” and the Cell death (20 μm) was 30%.

With CCCCCCCOc1ccc(S(=O)(=O)c2cnc3ccc([S+](C)[O-])cc3c2N2CCN(CC3CCN(Cc4ccccc4)CC3)CC2)cc1 (stereo not drawn) [Compound 279] the “48 hrs (morphology observations)” value (20 μm) was “**** (100% of endothelial cells vesicularize in cell shape and look flattened in morphology (indicating disintegration of the cell body))” and the Cell death (20 μm) was 100%.

In the case of CCCCCCCCCCCCOc1ccc(S(=O)(=O)c2cnc3ccc([S+](C)[O-])cc3c2N2CCC(N3CCC(N4CCN(CCO)CC4)CC3)CC2)cc1 (stereo not drawn) [Compound 340], the “48 hrs (morphology observations)” value (20 μm) was “*** (more than 50% but less than 100% of endothelial cells vesicularize in cell shape)” and the Cell death (20 μm) was 60%.

With CCCCOc1ccc(S(=O)(=O)c2cnc3ccc(C(=O)OCC)cc3c2N2CCC(N3CC[S+]([O-])CC3)CC2)cc1 [Compound 244] the “48 hrs (morphology observations)” value (40 μm) was 0 and the cytotoxicity at 40 µM was 20%.

With CCCCOc1ccc(S(=O)(=O)c2cnc3ccc(SC)cc3c2N2CCC(N3CCN(CCO)CC3)CC2)cc1 [Compound 230] the “48 hrs (morphology observations)” value (40 μm) was “*** (more than 50% but less than 100% of endothelial cells vesicularize in cell shape)” and the cytotoxicity at 40 µM was 100%.

For CCCCCCCCCCCCCCCCOc1ccc(S(=O)(=O)c2cnc3ccc([S+](C)[O-])cc3c2N2CCC(N3CCC(N4CCCCC4)CC3)CC2)cc1 (stereo not drawn) [Compound 377], the “48 hrs (morphology observations)” value (20 μm) was 0 and the Cell death (20 μm) was 10%.

For CCCCCCCCCCOc1ccc(S(=O)(=O)c2cnc3ccc([S+](C)[O-])cc3c2N2CCC(N3CCN(CCO)CC3)CC2)cc1 (stereo not drawn) [Compound 268], the “48 hrs (morphology observations)” value (20 μm) was “*** (more than 50% but less than 100% of endothelial cells vesicularize in cell shape)” and the Cell death (20 μm) was 50%.

CCOC(=O)c1ccc2ncc(S(=O)(=O)c3ccc(OC)cc3)c(N3CCC(N4CCC(CO)CC4)CC3)c2c1 [Compound 175] was tested, and the “48 hrs (morphology observations)” value (40 μm) was 0 and the Cell death (40 μm) was 30%.

For CCCCOc1ccc(S(=O)(=O)c2cnc3ccc(SC)cc3c2N2CCCN(CCO)CC2)cc1 [Compound 351], the “48 hrs (morphology observations)” value (40 μm) was “*** (more than 50% but less than 100% of endothelial cells vesicularize in cell shape)” and the cytotoxicity at 40 µM was 100%.

CCCCCCCOc1ccc(S(=O)(=O)c2cnc3ccc(SC)cc3c2N2CCC(N3CCC(N4CCCCC4)CC3)CC2)cc1 [Compound 251] was tested, and the “48 hrs (morphology observations)” value (20 μm) was “*** (more than 50% but less than 100% of endothelial cells vesicularize in cell shape)” and the Cell death (20 μm) was 60%.

With CCCCOc1ccc(S(=O)(=O)c2cnc3ccc(OC(F)(F)F)cc3c2N2CC[S+]([O-])CC2)cc1 [Compound 197] the “48 hrs (morphology observations)” value (40 μm) was 0 and the Cell death (40 μm) was 20%.

For CCCCCCCCCCCCOc1ccc(S(=O)(=O)c2cnc3ccc([S+](C)[O-])cc3c2N2CCC(N3CCN(CCO)CC3)CC2)cc1 (stereo not drawn) [Compound 344], the “48 hrs (morphology observations)” value (20 μm) was “* (50% or less of cells vesicularize in cell shape)” and the cytotoxicity at 20 µM was 10%.

For CCCCCCCCCCCCOc1ccc(S(=O)(=O)c2cnc3ccc([S+](C)[O-])cc3c2N2CCC(N3CCC(N4CCCCC4)CC3)CC2)cc1F (stereo not drawn) [Compound 363], the “48 hrs (morphology observations)” value (20 μm) was “*** (more than 50% but less than 100% of endothelial cells vesicularize in cell shape)” and the Cell death (20 μm) was 30%.

In the case of CCOC(=O)c1ccc2ncc(S(=O)(=O)c3ccc(OC)cc3)c(N3CCCN(CCN4CCCCC4)CC3)c2c1 [Compound 179], the “48 hrs (morphology observations)” value (10 μm) was “*** (more than 50% but less than 100% of endothelial cells vesicularize in cell shape)” and the Cell death (10 μm) was 60%.

CCCCCCCOc1ccc(S(=O)(=O)c2cnc3ccc(SC)cc3c2N2CCN(C3CCN(C)CC3)CC2)cc1 [Compound 273] was tested, and the “48 hrs (morphology observations)” value (20 μm) was “*** (more than 50% but less than 100% of endothelial cells vesicularize in cell shape)” and the cytotoxicity at 20 µM was 60%.

CCCCOc1ccc(S(=O)(=O)c2cnc3ccc([S+](C)[O-])cc3c2N2CCC(N3CCN(c4ccc(F)cc4)CC3)CC2)cc1 (stereo not drawn) [Compound 239] was tested, and the “48 hrs (morphology observations)” value (40 μm) was 0 and the Cell death (40 μm) was 40%.

CCc1ccc(S(=O)(=O)c2cnc3ccc(OC(F)(F)F)cc3c2NCCCCCO)cc1 [Compound 104] was tested, and the “48 hrs (morphology observations)” value (20 μm) was 0 and the Cell death (20 μm) was 20%.

In the case of COc1ccc(S(=O)(=O)c2cnc3ccc(OC(F)(F)F)cc3c2N2CCC(N3CCC(O)CC3)CC2)cc1 [Compound 113], the “48 hrs (morphology observations)” value (20 μm) was 0 and the cytotoxicity at 20 µM was 10%.

In the case of CCCCCCCCCCOc1ccc(S(=O)(=O)c2cnc3ccc([S+](C)[O-])cc3c2N2CCCN(CCN3CCCCC3)CC2)cc1 (stereo not drawn) [Compound 266], the “48 hrs (morphology observations)” value (10 μm) was 0 and the Cell death (10 μm) was 5%.

COc1ccc(S(=O)(=O)c2cnc3cc(OC)c(OC)cc3c2N2CCCN(C3COC3)CC2)cc1 [Compound 326] was tested, and the “48 hrs (morphology observations)” value (40 μm) was 0 and the Cell death (40 μm) was 30%.

For CCCCCCCOc1ccc(S(=O)(=O)c2cnc3ccc(SC)cc3c2N2CCN(CC3CCN(Cc4ccccc4)CC3)CC2)cc1 [Compound 275], the “48 hrs (morphology observations)” value (20 μm) was 0 and the Cell death (20 μm) was 5%.

CCCCCCCOc1ccc(S(=O)(=O)c2cnc3ccc([S+](C)[O-])cc3c2N2CCC(N3CCC(O)(c4ccccc4)CC3)CC2)cc1 (stereo not drawn) [Compound 263] was tested, and the “48 hrs (morphology observations)” value (10 μm) was “**** (100% of endothelial cells vesicularize in cell shape and look flattened in morphology (indicating disintegration of the cell body))”.

For COc1ccc(S(=O)(=O)c2cnc3ccc(C(=O)N(C)C)cc3c2N2CCCN(CC(=O)N(C)C)CC2)cc1 [Compound 333], the “48 hrs (morphology observations)” value (40 μm) was 0 and the Cell death (40 μm) was 0%.
